# Test results taken from patent US9663508B2, “Biaryl acyl-sulfonamide compounds as sodium channel inhibitors” (AMGEN INC., priority 2013, dated 2017).
# Like-named read-outs stand apart in the source and are kept apart here.
# Experiments:
# human Nav 1.5 = human Nav 1.5 (Homo sapiens (Human), UniProt Q14524); test: Nav 1.5 IonWorks Quattro (IWQ) in vitro assay; format: cell-based
# Procedure: Nav 1.7 or Nav 1.5 Ion Works Quattro (IWQ) In Vitro Assay
# HEK 293 Cells stably transfected with either human Nay 1.7 or human Nay 1.5 were recorded in population patch-clamp mode with the IonWorks® Quattro automated electrophysiology system in accordance with the manufacturer's specifications (Molecular Devices, LLC, Sunnyvale, Calif.). Sodium channel currents were measured in response to a train of depolarizations that induced successively greater inactivation.
# Cells were held at −110 mV for three seconds (Nav 1.7) or half a second (Nav 1.5) from a holding voltage of −15 mV, then put through a series of 26 pulses of 150 msec duration to −20 mV at a frequency of 5 Hz. Cells were then left unclamped for a period of 3 to 8 minutes while a single concentration of test compound was added. Cells were then reclamped and put through the same voltage protocol. Current at the end of the 26th pulse to −20 mV was subtracted from the peak current evoked by the 26th pulse to −20 mV to correct for leak current. Percent block was calculated for each concentration in duplicate, and IC50 curves were fitted to percent block as a function of concentration.
# human Nav1.7 = human Nav1.7 (Homo sapiens (Human), UniProt Q15858); test: Nav 1.7 in vitro PatchXpress (PX) assay; format: cell-based
# Procedure: HEK 293 cells stably transfected with human Nav1.7 were recorded in whole cell voltage clamp mode with the PatchXpress automated electrophysiology system (Molecular Devices, LLC, Sunnyvale, Calif.). Compound effects were measured on a partially inactivated state of the sodium channel. Cells were clamped to a holding potential yielding 20 to 50% inactivation. To elicit sodium current, channels were activated by pulsing to −10 mV for 20 msec. This voltage protocol was repeated at a rate of 0.1 Hz throughout the experiment. A single concentration of test compound was applied to cells for a duration of 3 minutes. Peak sodium current was measured at the end of the compound addition period to determine percent inhibition. Three to five cells were tested per concentration, and IC50 curves were fitted to percent inhibition as a function of concentration.
# [1] = in-vitro Nav 1.5 IWQ data, read-out: NAV 1.5 IWQ (IC50)
# Sequence of human Nav 1.5 (Q14524 whole entry): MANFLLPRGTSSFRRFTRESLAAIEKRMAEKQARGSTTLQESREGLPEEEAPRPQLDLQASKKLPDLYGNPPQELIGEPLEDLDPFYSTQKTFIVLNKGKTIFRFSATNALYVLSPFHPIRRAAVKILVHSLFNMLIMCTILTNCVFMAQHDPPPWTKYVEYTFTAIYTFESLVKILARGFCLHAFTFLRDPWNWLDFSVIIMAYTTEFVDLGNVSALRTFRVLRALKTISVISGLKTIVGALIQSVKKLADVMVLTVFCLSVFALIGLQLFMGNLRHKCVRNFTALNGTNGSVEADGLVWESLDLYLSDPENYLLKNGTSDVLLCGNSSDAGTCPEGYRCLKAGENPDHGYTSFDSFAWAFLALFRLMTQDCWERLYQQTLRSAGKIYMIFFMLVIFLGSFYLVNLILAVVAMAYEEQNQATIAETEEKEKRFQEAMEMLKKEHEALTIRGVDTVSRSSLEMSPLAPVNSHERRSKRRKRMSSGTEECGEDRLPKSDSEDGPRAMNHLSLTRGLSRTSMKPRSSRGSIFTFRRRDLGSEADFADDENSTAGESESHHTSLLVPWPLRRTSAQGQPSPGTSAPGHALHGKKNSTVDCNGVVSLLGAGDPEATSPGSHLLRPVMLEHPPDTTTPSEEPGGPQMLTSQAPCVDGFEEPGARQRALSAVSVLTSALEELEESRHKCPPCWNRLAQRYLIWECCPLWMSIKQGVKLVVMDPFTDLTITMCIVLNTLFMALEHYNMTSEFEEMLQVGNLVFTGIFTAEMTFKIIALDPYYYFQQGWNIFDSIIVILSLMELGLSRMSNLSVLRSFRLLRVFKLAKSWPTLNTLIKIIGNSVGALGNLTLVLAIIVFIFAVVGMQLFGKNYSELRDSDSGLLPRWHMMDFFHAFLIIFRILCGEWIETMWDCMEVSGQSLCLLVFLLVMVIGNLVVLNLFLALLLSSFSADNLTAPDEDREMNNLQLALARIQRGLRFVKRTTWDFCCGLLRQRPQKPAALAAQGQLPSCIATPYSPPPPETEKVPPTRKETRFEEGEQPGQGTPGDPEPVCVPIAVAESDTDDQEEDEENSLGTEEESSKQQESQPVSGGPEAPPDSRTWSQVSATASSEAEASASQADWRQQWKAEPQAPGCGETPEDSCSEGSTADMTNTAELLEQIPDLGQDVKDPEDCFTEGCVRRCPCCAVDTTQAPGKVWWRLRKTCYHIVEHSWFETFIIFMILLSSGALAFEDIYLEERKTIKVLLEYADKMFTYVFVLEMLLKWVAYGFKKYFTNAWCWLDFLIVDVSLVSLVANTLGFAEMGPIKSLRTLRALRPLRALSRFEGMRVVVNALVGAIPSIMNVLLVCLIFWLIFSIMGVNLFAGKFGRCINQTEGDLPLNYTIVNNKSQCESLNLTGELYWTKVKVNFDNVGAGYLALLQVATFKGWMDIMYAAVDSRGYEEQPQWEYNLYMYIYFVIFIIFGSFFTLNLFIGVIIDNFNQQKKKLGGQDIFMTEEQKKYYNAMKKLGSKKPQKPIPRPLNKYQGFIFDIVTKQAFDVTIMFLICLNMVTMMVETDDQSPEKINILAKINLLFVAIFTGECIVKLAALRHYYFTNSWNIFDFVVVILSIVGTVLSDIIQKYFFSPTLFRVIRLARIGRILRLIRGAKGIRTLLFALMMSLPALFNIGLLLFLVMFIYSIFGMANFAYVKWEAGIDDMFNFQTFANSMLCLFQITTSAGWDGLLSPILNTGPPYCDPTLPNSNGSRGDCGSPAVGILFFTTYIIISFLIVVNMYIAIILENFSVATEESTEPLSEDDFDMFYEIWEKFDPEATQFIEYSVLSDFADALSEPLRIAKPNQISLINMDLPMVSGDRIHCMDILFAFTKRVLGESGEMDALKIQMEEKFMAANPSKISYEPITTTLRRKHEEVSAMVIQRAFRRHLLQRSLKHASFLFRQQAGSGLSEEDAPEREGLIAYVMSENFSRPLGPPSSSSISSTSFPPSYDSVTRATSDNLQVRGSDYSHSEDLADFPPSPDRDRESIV
# Sequence of human Nav1.7 (Q15858 whole entry): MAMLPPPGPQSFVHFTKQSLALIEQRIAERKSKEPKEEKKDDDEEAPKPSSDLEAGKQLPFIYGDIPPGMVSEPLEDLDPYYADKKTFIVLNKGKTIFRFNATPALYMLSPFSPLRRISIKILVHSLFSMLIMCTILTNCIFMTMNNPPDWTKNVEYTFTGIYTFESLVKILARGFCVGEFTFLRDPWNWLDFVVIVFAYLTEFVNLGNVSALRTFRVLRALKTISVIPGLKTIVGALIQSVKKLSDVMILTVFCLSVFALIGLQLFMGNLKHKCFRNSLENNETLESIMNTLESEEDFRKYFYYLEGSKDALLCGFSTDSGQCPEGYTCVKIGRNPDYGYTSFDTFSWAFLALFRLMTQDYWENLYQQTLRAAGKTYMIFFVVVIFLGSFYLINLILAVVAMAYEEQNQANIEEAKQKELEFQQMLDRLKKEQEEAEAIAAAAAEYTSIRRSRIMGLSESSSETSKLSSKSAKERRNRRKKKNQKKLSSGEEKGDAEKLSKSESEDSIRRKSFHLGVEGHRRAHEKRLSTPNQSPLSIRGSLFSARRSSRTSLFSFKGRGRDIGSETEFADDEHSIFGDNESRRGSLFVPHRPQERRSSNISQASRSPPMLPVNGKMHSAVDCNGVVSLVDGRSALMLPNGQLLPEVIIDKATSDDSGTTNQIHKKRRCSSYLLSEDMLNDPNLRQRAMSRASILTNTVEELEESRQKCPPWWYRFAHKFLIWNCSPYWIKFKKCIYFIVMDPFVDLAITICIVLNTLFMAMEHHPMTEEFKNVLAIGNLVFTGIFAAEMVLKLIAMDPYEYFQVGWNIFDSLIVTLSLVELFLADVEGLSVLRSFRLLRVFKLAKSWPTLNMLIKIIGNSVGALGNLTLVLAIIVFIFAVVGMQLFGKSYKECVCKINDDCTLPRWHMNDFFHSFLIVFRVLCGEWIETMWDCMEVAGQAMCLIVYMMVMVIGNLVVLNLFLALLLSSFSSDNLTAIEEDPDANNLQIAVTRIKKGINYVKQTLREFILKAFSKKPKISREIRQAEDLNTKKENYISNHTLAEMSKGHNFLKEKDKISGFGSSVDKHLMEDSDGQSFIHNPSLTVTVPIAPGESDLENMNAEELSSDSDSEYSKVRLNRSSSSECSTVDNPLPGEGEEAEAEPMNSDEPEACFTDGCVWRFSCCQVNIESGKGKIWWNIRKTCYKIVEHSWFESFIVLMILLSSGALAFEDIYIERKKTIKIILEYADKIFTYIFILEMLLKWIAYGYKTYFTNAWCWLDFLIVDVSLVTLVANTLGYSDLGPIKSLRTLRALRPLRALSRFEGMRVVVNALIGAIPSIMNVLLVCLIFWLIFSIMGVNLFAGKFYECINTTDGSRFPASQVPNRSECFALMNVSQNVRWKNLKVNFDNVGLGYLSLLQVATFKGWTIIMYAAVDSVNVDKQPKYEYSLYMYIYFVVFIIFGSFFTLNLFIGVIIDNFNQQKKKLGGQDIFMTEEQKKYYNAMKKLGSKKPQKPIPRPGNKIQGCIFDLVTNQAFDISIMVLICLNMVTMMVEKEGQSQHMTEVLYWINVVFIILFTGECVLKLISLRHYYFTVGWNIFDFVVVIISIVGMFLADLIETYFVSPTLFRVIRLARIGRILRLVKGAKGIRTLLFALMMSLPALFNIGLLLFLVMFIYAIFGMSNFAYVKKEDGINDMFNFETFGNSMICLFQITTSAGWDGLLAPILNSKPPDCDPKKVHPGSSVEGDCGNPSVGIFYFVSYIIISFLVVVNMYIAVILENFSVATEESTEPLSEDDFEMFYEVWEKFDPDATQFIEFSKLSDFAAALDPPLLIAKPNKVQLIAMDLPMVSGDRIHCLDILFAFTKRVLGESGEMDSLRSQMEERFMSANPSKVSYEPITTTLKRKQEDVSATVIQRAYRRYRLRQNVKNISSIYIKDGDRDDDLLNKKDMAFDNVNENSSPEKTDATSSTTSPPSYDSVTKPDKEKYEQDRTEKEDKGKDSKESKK
Structure (SMILES),IC50 (human Nav 1.5; read-out: NAV 1.5 IWQ IC50) [nM],IC50 (human Nav1.7) [nM],IC50 (human Nav 1.5; [1]) [nM],IC50 (human Nav1.7; in-vitro Nav 1.7 PX data) [nM],IC50 (human Nav 1.5) [nM]
"Cc1ccc(Cl)cc1Oc1ncc(-c2cc(F)c(C(=O)NS(C)(=O)=O)cc2Cl)cc1Cl [Example 590, 5-chloro-4-(5-chloro-6-(5-chloro-2-methylphenoxy)-3-pyridinyl)-2-fluoro-N-(methylsulfonyl)benzamide]",> 3000,68.1,,,
"Cc1cc(Cl)ccc1COc1ncc(-c2cc(F)c(C(=O)NS(C)(=O)=O)cc2C)cc1Cl [Example 681, 4-(5-chloro-6-((4-chloro-2-methylbenzyl)oxy)-3-pyridinyl)-2-fluoro-5-methyl-N-(methylsulfonyl)benzamide]",> 4900,98.6,,,
"Cc1cc(C(=O)NS(C)(=O)=O)c(F)cc1-c1cnc(Oc2cc(F)c(Br)cc2Cl)c(Cl)c1 [Example 606, 4-(6-(4-bromo-2-chloro-5-fluorophenoxy)-5-chloro-3-pyridinyl)-2-fluoro-5-methyl-N-(methylsulfonyl)benzamide]",> 3000,71.7,,,
"Cc1cc(C(=O)NS(C)(=O)=O)c(F)cc1-c1cnc(Oc2cc(F)cc(F)c2F)c(Cl)c1 [Example 629, 4-(5-chloro-6-(2,3,5-trifluorophenoxy)-3-pyridinyl)-2-fluoro-5-methyl-N-(methylsulfonyl)benzamide]",> 3000,57.8,,,
"CCCS(=O)(=O)NC(=O)c1cc(C)c(-c2cnc(OC3CCC3)c(Cl)c2)cc1F [Example 796, 4-(5-chloro-6-(cyclobutyloxy)-3-pyridinyl)-2-fluoro-5-methyl-N-(propylsulfonyl)benzamide]",,,9310,110,
"Cc1cc(C(=O)NS(C)(=O)=O)c(F)cc1-c1cnc(O[C@@H](C)c2cc(Cl)ccc2Cl)c(Cl)c1 [Example 674, 4-(5-chloro-6-((1S)-1-(2,5-dichlorophenyl)ethoxy)-3-pyridinyl)-2-fluoro-5-methyl-N-(methylsulfonyl)benzamide]",4860,83.4,,,
"CS(=O)(=O)NC(=O)c1cc(Cl)c(-c2cnc(Oc3cc(F)ccc3Cl)c(Cl)c2)cc1F [Example 595, 5-chloro-4-(5-chloro-6-(2-chloro-5-fluorophenoxy)-3-pyridinyl)-2-fluoro-N-(methylsulfonyl)benzamide]",> 3000,81.4,,,
"CC[C@H](Oc1ncc(-c2cc(F)c(C(=O)NS(C)(=O)=O)cc2C)cc1Cl)c1ccc(F)cc1 [Example 651, 4-(5-chloro-6-(((1S)-1-(4-fluorophenyl)propyl)oxy)-3-pyridinyl)-2-fluoro-5-methyl-N-(methylsulfonyl)benzamide]",> 3000,73.5,,,
"CC[C@H](Cc1ccccc1)Oc1ncc(-c2cc(F)c(C(=O)NS(C)(=O)=O)cc2Cl)cc1Cl [Example 593, 4-(6-(((1R)-1-benzylpropyl)oxy)-5-chloro-3-pyridinyl)-5-chloro-2-fluoro-N-(methylsulfonyl)benzamide, 4-(6-(((1S)-1-benzylpropyl)oxy)-5-chloro-3-pyridinyl)-5-chloro-2-fluoro-N-(methylsulfonyl)benzamide]",> 3000,97.4,,,
"COc1cc(C(=O)NS(C)(=O)=O)c(F)cc1-c1cnc(Oc2ccc(C)c(F)c2)c(Cl)c1 [Example 698, 4-(5-chloro-6-(3-fluoro-4-methylphenoxy)-3-pyridinyl)-2-fluoro-5-methoxy-N-(methylsulfonyl)benzamide]",6050,59,,,
"COc1cc(C(=O)NS(C)(=O)=O)ccc1-c1cnc(Oc2cc(Cl)cc(Cl)c2)c(Cl)c1 [Example 348, 4-(5-chloro-6-(3,5-dichlorophenoxy)-3-pyridinyl)-3-methoxy-N-(methylsulfonyl)benzamide]",5740,34.5,,,
"Cc1cc(C(=O)NS(C)(=O)=O)c(F)cc1-c1cnc(O[C@H](C)c2nc3ccccc3s2)c(Cl)c1 [Example 647, 4-(6-((1R)-1-(1,3-benzothiazol-2-yl)ethoxy)-5-chloro-3-pyridinyl)-2-fluoro-5-methyl-N-(methylsulfonyl)benzamide, 4-(6-((1S)-1-(1,3-benzothiazol-2-yl)ethoxy)-5-chloro-3-pyridinyl)-2-fluoro-5-methyl-N-(methylsulfonyl)benzamide]",> 3000,76,,,
"Cc1cc(C(=O)NS(C)(=O)=O)c(F)cc1-c1cnc(Oc2c(F)cc(F)cc2F)c(Cl)c1 [Example 622, 4-(5-chloro-6-(2,4,6-trifluorophenoxy)-3-pyridinyl)-2-fluoro-5-methyl-N-(methylsulfonyl)benzamide]",> 3000,87.3,,,
"Cc1cc(C(=O)NS(C)(=O)=O)c(F)cc1-c1cnc(Oc2c(Cl)cccc2Cl)c(Cl)c1 [Example 627, 4-(5-chloro-6-(2,6-dichlorophenoxy)-3-pyridinyl)-2-fluoro-5-methyl-N-(methylsulfonyl)benzamide]",> 3000,69.1,,,
"Cc1cc(C(=O)NS(C)(=O)=O)c(F)cc1-c1cnc(O[C@@H](C)c2nc3ccccc3s2)c(Cl)c1 [Example 710, 4-(6-((1S)-1-(1,3-benzothiazol-2-yl)ethoxy)-5-chloro-3-pyridinyl)-2-fluoro-5-methyl-N-(methylsulfonyl)benzamide]",,,> 3000,87.3,
"Cc1cc(C(=O)NS(C)(=O)=O)c(F)cc1-c1cnc(Oc2c(C)cc(Cl)cc2Cl)c(Cl)c1 [Example 628, 4-(5-chloro-6-(2,4-dichloro-6-methylphenoxy)-3-pyridinyl)-2-fluoro-5-methyl-N-(methylsulfonyl)benzamide]",2190,56,,,
"Cc1cc(Cl)cc(Cl)c1Oc1ncc(-c2cc(F)c(C(=O)NS(C)(=O)=O)cc2F)cc1Br [Example 575, 4-(5-bromo-6-(2,4-dichloro-6-methylphenoxy)-3-pyridinyl)-2,5-difluoro-N-(methylsulfonyl)benzamide]",> 4900,42.4,,,
"Cc1cc(C(=O)NS(C)(=O)=O)c(F)cc1-c1cnc(N2CCC[C@@H]2c2cccc(Cl)c2)c(Cl)c1 [Example 656, 4-(5-chloro-6-((2R)-2-(3-chlorophenyl)-1-pyrrolidinyl)-3-pyridinyl)-2-fluoro-5-methyl-N-(methylsulfonyl)benzamide, 4-(5-chloro-6-((2S)-2-(3-chlorophenyl)-1-pyrrolidinyl)-3-pyridinyl)-2-fluoro-5-methyl-N-(methylsulfonyl)benzamide]",> 3000,73.8,,,
"CC[C@@H](Oc1ncc(-c2cc(F)c(C(=O)NS(C)(=O)=O)cc2C)cc1Cl)c1ccc(Cl)cc1 [Example 640, 4-(5-chloro-6-(((1R)-1-(4-chlorophenyl)propyl)oxy)-3-pyridinyl)-2-fluoro-5-methyl-N-(methylsulfonyl)benzamide, 4-(5-chloro-6-(((1S)-1-(4-chlorophenyl)propyl)oxy)-3-pyridinyl)-2-fluoro-5-methyl-N-(methylsulfonyl)benzamide]",> 3000,90.8,,,
"Cc1cc(C(=O)NS(C)(=O)=O)c(F)cc1-c1cnc(OCc2cccc3ncccc23)c(Cl)c1 [Example 654, 4-(5-chloro-6-(5-quinolinylmethoxy)-3-pyridinyl)-2-fluoro-5-methyl-N-(methylsulfonyl)benzamide]",> 3000,90.4,,,
"COc1cc(C(=O)NS(C)(=O)=O)c(F)cc1-c1cnc(OCc2nc3ccccc3s2)c(Cl)c1 [Example 708, 4-(6-(1,3-benzothiazol-2-ylmethoxy)-5-chloro-3-pyridinyl)-2-fluoro-5-methoxy-N-(methylsulfonyl)benzamide]",,,> 3000,32.6,
"Cc1cc(C(=O)NS(C)(=O)=O)c(F)cc1-c1cnc(Oc2ccccc2-c2ccccc2)c(Cl)c1 [Example 612, 4-(6-(2-biphenylyloxy)-5-chloro-3-pyridinyl)-2-fluoro-5-methyl-N-(methylsulfonyl)benzamide]",> 3000,88.3,,,
"Cc1cc(C(=O)NS(C)(=O)=O)c(F)cc1-c1cnc(Oc2c(C)cccc2C(C)(C)C)c(Cl)c1 [Example 633, 4-(6-(2-tert-butyl-6-methylphenoxy)-5-chloro-3-pyridinyl)-2-fluoro-5-methyl-N-(methylsulfonyl)benzamide]",> 3000,83.3,,,
"Cc1ccc(C(C)(C)C)c(Oc2ncc(-c3cc(F)c(C(=O)NS(C)(=O)=O)cc3C)cc2Cl)c1 [Example 624, 4-(6-(2-tert-butyl-5-methylphenoxy)-5-chloro-3-pyridinyl)-2-fluoro-5-methyl-N-(methylsulfonyl)benzamide]",> 3000,82.7,,,
"CS(=O)(=O)NC(=O)c1cc(Cl)c(-c2cnc(Oc3c(Cl)cccc3Cl)c(Cl)c2)cc1F [Example 592, 5-chloro-4-(5-chloro-6-(2,6-dichlorophenoxy)-3-pyridinyl)-2-fluoro-N-(methylsulfonyl)benzamide]",> 3000,66.1,,,
"Cc1cc(C(=O)NS(C)(=O)=O)c(F)cc1-c1cnc(O[C@H](C)c2c(F)cc(F)cc2F)c(Cl)c1 [Example 661, 4-(5-chloro-6-((1R)-1-(2,4,6-trifluorophenyl)ethoxy)-3-pyridinyl)-2-fluoro-5-methyl-N-(methylsulfonyl)benzamide, 4-(5-chloro-6-((1S)-1-(2,4,6-trifluorophenyl)ethoxy)-3-pyridinyl)-2-fluoro-5-methyl-N-(methylsulfonyl)benzamide]",> 10000,76.9,,,
"COc1cc(C(=O)NS(C)(=O)=O)ccc1-c1cnc(Oc2cc(Cl)cc(Cl)c2)c(C)c1 [Example 841, 4-(6-(3,5-Dichlorophenoxy)-5-Methyl-3-Pyridinyl)-3-Methoxy-N-(Methylsulfonyl)Benzamide]",,,> 3000,82.8,
"COc1cc(C(=O)NS(C)(=O)=O)ccc1-c1cnc(OCc2ccc(Cl)cc2)c(Cl)c1 [Example 576, 4-(5-chloro-6-((4-chlorobenzyl)oxy)-3-pyridinyl)-3-methoxy-N-(methylsulfonyl)benzamide]",,70,,,> 3000
"CS(=O)(=O)NC(=O)c1cc(Cl)c(-c2cnc(Oc3cc(F)cc(F)c3Cl)c(Cl)c2)cc1F [Example 599, 5-chloro-4-(5-chloro-6-(2-chloro-3,5-difluorophenoxy)-3-pyridinyl)-2-fluoro-N-(methylsulfonyl)benzamide]",> 3000,62.7,,,
